According to ChEMBL document CHEMBL1201862, “PubChem BioAssay data set” (2004):
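Assay format: 96-well plates, 48-hour exposure. The concentration for 50% growth inhibition is given as GI50.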 Calls of active or inactive are those of the source. Rule as the data show it: active = GI50 up to about 1.1 µM and inactive = higher.

Legend:
Assay in all cases: NCI tumour cell line growth inhibition, 48 h
DLD-1 = test system: DLD-1
HCT-15 = test system: HCT-15
LOX IMVI = test system: LOX IMVI
NCI-H23 = test system: NCI-H23
SF-539 = test system: SF-539
HOP-92 = test system: HOP-92
RPMI-8226 = test system: RPMI-8226
HT-29 = test system: HT-29
NCI-H226 = test system: NCI-H226
IGROV-1 = test system: IGROV-1
OVCAR-5 = test system: OVCAR-5
M14 = test system: M14
SNB-75 = test system: SNB-75
HCT-116 = test system: HCT-116
NCI-H522 = test system: NCI-H522
M19-MEL = test system: M19-MEL
SK-MEL-2 = test system: SK-MEL-2
SK-MEL-28 = test system: SK-MEL-28

SMILES | GI50 (DLD-1) | GI50 (HCT-15) [µM] | GI50 (LOX IMVI) | GI50 (NCI-H23) | GI50 (SF-539) | GI50 (HOP-92) | GI50 (RPMI-8226) | GI50 (HT-29) | GI50 (NCI-H226) | GI50 (IGROV-1) | GI50 (OVCAR-5) | GI50 (M14) | GI50 (SNB-75) | GI50 (HCT-116) | GI50 (NCI-H522) | GI50 (M19-MEL) | GI50 (SK-MEL-2) | GI50 (SK-MEL-28)
COC(=O)C(=O)OC1(C(C)=O)CC2(c3ccccc3)OC1(c1ccccc1)c1ccccc12 (configuration not stated) | 18.6 µM (inactive) | 16.9 | 15.7 µM (inactive) | 17.2 µM (inactive) | 13 µM (inactive) | 14 µM (inactive) | 20.8 µM (inactive) | 17 µM (inactive) | 17.3 µM (inactive) | 16.3 µM (inactive) | 26.1 µM (inactive) | 17.9 µM (inactive) | 32.7 µM (inactive) | 16.2 µM (inactive) | 17.7 µM (inactive) | 16.9 µM (inactive) |  | 
Cc1nc2ccccc2c(=O)n1NC(=S)Nc1ccccc1 | > 100 µM (inactive) | > 100 | > 100 µM (inactive) | 84.3 µM (inactive) | > 100 µM (inactive) | 85.1 µM (inactive) | > 100 µM (inactive) | > 100 µM (inactive) | 37.7 µM (inactive) | > 100 µM (inactive) | > 100 µM (inactive) | > 100 µM (inactive) | 4.99 µM (inactive) | > 100 µM (inactive) | > 100 µM (inactive) | > 100 µM (inactive) | > 100 µM (inactive) | > 100 µM (inactive)
N#CC(C(=O)/C(=N/N)C(C#N)c1ccc(Cl)cc1)c1ccc(Cl)cc1 (configuration not stated) | > 100 µM (inactive) | > 100 | > 100 µM (inactive) | > 100 µM (inactive) | > 100 µM (inactive) | > 100 µM (inactive) | > 100 µM (inactive) | > 100 µM (inactive) | > 100 µM (inactive) | > 100 µM (inactive) | > 100 µM (inactive) | > 100 µM (inactive) | > 100 µM (inactive) | > 100 µM (inactive) | > 100 µM (inactive) | > 100 µM (inactive) | > 100 µM (inactive) | > 10 µM (inactive)
C=C(COC(C)=O)CC(/C=C(\C)CCC=C(C)C)OC(C)=O (configuration not stated) | > 100 µM (inactive) | > 100 | 32.2 µM (inactive) | > 100 µM (inactive) | > 100 µM (inactive) | 46.5 µM (inactive) | > 10 µM (inactive) | > 100 µM (inactive) | > 100 µM (inactive) | > 100 µM (inactive) | > 100 µM (inactive) | > 100 µM (inactive) | 50.6 µM (inactive) | > 100 µM (inactive) | > 100 µM (inactive) | > 100 µM (inactive) | > 100 µM (inactive) | > 100 µM (inactive)
CCOC(=N)CC(=O)c1ccccc1 | > 100 µM (inactive) |  | > 100 µM (inactive) | > 100 µM (inactive) | > 100 µM (inactive) | > 100 µM (inactive) |  | > 100 µM (inactive) | > 100 µM (inactive) | > 100 µM (inactive) | > 100 µM (inactive) | > 100 µM (inactive) | > 100 µM (inactive) | > 100 µM (inactive) | > 100 µM (inactive) | > 100 µM (inactive) | > 100 µM (inactive) | > 100 µM (inactive)
COC(=O)C(C(=O)C(=O)NC1=C(Cl)C(=O)c2ccccc2C1=O)c1csc(-n2nc(-c3ccccc3)cc2-c2ccccc2)n1 (configuration not stated) | > 100 µM (inactive) | > 100 | > 100 µM (inactive) | > 100 µM (inactive) |  | > 100 µM (inactive) | > 100 µM (inactive) | 20.7 µM (inactive) | > 100 µM (inactive) | > 100 µM (inactive) | > 100 µM (inactive) | > 100 µM (inactive) | 1.65 µM (inactive) | > 100 µM (inactive) | > 100 µM (inactive) | > 100 µM (inactive) |  | 
CCCCCCC(C)OC(=O)/C=C(\CC(=O)OC(C)CCCCCC)C(=O)OC(C)CCCCCC (configuration not stated) | > 100 µM (inactive) | > 100 | > 100 µM (inactive) | > 100 µM (inactive) | > 100 µM (inactive) | > 100 µM (inactive) | > 100 µM (inactive) | > 100 µM (inactive) | > 100 µM (inactive) | > 100 µM (inactive) | > 100 µM (inactive) | > 100 µM (inactive) | > 100 µM (inactive) | > 100 µM (inactive) | > 100 µM (inactive) | > 100 µM (inactive) | > 100 µM (inactive) | > 100 µM (inactive)
COC12OCCN(CCO)C1=CC(=O)C1(C)N=NC(C)C12 (configuration not stated) | > 100 µM (inactive) | > 100 | > 100 µM (inactive) | > 100 µM (inactive) | > 100 µM (inactive) | > 100 µM (inactive) | > 100 µM (inactive) | > 100 µM (inactive) | > 100 µM (inactive) | > 100 µM (inactive) |  | > 100 µM (inactive) | > 100 µM (inactive) | > 100 µM (inactive) | > 100 µM (inactive) | > 100 µM (inactive) |  | > 100 µM (inactive)
COc1ccc2nc(NC(=O)C(=O)CC(=O)c3ccc(Cl)cc3)sc2c1 | > 100 µM (inactive) | > 100 |  | > 100 µM (inactive) | 17.3 µM (inactive) | 30.5 µM (inactive) |  | > 100 µM (inactive) | 96.2 µM (inactive) | 73.1 µM (inactive) |  | > 100 µM (inactive) | 29.4 µM (inactive) | > 100 µM (inactive) | 92.3 µM (inactive) | > 100 µM (inactive) | > 100 µM (inactive) | > 100 µM (inactive)
CSCC1CC(c2ccc(Cl)cc2)=NO1 (configuration not stated) | > 100 µM (inactive) | > 100 |  | > 100 µM (inactive) | > 100 µM (inactive) | > 100 µM (inactive) | > 100 µM (inactive) | > 100 µM (inactive) | > 100 µM (inactive) | > 100 µM (inactive) | > 100 µM (inactive) | > 100 µM (inactive) | > 100 µM (inactive) | > 100 µM (inactive) | > 100 µM (inactive) | > 100 µM (inactive) | > 100 µM (inactive) | > 100 µM (inactive)
OC/C=C(\I)CCCOCOCc1ccccc1 | > 100 µM (inactive) | 38.5 | 19.2 µM (inactive) | 26.3 µM (inactive) | 50.6 µM (inactive) | 15.7 µM (inactive) | 18.2 µM (inactive) | 36.2 µM (inactive) | 27.4 µM (inactive) | 98.2 µM (inactive) | 45.4 µM (inactive) | 31.1 µM (inactive) | 53.1 µM (inactive) | 28.1 µM (inactive) | 23.3 µM (inactive) | 32.1 µM (inactive) | 19.2 µM (inactive) | 37.9 µM (inactive)
CCCCCCCCCCCCC(Br)C(=O)NCC(N)=O (configuration not stated) | 12.9 µM (inactive) | 8.87 | 12.4 µM (inactive) | 4.51 µM (inactive) | 14.4 µM (inactive) | 3.7 µM (inactive) |  | 15.8 µM (inactive) | 1.67 µM (inactive) | 9.66 µM (inactive) | 29.4 µM (inactive) | 11.1 µM (inactive) | 0.118 µM (active) | 1.83 µM (inactive) | 2.28 µM (inactive) | 15 µM (inactive) | 11.7 µM (inactive) | 15.2 µM (inactive)
